Measured values: BindingDB's records for doi:10.1016/j.bioorg.2016.08.005 (Comsats Institute of Information Technology, 2016)

Columns and labels:
[1] = molecular target: Aldo-keto reductase family 1 member B1 [K65Q] (Bos taurus, UniProt P16116, K65Q); experiment: ALR2 in vitro Inhibition Assay
Description: The activity of ALR2 enzyme was determined at 340 nm in UV spectrophotometer that depends upon the measurement of NADPH consumption. Each well of the 96-well plate contains 200 µL of assay mixture consisting of potassium phosphate buffer 100 mMat 6.2 pH, 20 µL of 10 mM test sample, 70 µL of enzyme preparation and substrate D,L-glyceraldehyde (40 µL), all mixture was incubated at 37 °C for 5 min and then 0.1 mM NADPH (50 µL) was added as a cofactor in the enzyme reaction and read was measured at 340 nm and followed by incubation at 37 °C for 10 min and thenabsorbance was measured in Eliza plate reader at respective wavelength. Negative and positive control used were 10 m M buffer (20 µL) and 10 mM sulindac (20 µL) [Med. Chem. Commun., 5:1371-1380].

[2] = molecular target: Aldo-keto reductase family 1 member A1 (Bos taurus, UniProt Q3ZCJ2); experiment: ALR1 in vitro Inhibition Assay; settings: pH 6.2
Aldo-keto reductase family 1 member A1, sequence (Q3ZCJ2 whole entry): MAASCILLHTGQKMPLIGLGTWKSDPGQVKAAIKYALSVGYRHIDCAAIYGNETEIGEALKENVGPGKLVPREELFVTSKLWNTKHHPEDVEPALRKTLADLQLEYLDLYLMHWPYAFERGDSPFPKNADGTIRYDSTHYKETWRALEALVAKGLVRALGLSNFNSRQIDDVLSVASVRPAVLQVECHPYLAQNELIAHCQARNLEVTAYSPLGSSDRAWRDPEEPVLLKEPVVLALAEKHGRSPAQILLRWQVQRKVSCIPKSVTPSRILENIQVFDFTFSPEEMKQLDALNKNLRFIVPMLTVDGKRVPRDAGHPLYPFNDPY
Description: The assay results were obtained at 340 nm and ALR1 inhibitory activity was measured with the absorbance change at this respective wavelength. Each well contains 200 µL of assay mixture containing potassium phosphate buffer 100 mM at pH 6.2 with test sample 20 µL of 10 mM, 70 µL enzyme preparation and 40 µL of10 mM sodium D-glucoronic acid as a substrate. This mixture was incubated at 37 °C for 5 min and 50 µL of 0.1 mM NADPH as a cofactor was added and the read was obtained at 340 nm. The assay mixture was incubated again at 37 °C for 10 min and the read was taken at the respective UV range in ELIZA plate reader. As positive and negative control, 10 mM valproic acid (20 µL) and buffer solution (20 µL) were used [Biol. Chem., 240:877-882].

Structure (SMILES)	IC50 [1]	IC50 [2]
O=c1oc2ccccc2cc1-c1nn(CN(c2ccccc2)c2ccccc2)c(=S)o1 [3-(4-((Diphenylamino)methyl)-5-thioxo-4,5-dihydro-1,3,4-oxadiazol-2-yl)-2H-chromen-2-one (11h)]	3.39 µM	–
COc1ccc(/C(C)=N/Nc2nc(-c3cc4ccccc4oc3=O)cs2)cc1 [(E)-3-(2-(2-(1-(4-methoxyphenyl)ethylidene)hydrazinyl)thiazol-4-yl)-2H-chromen-2-one (6h)]	–	7.62 µM
COc1ccc(/C(C)=N/Nc2nc(-c3cc4ccccc4oc3=O)cs2)cc1I [(E)-3-(2-(2-(1-(3-iodo-4-methoxyphenyl)ethylidene)hydrazinyl)thiazol-4-yl)-2H-chromen-2-one (6l)]	–	14.4 µM
COc1ccc(/C(C)=N/Nc2nc(-c3cc4ccccc4oc3=O)cs2)cc1F [(E)-3-(2-(2-(1-(3-fluoro-4-methoxyphenyl)ethylidene)hydrazinyl)thiazol-4-yl)-2H-chromen-2-one (6i)]	–	1.08 µM
CCCCNCn1nc(-c2cc3ccccc3oc2=O)oc1=S [3-(4-((Butylamino)methyl)-5-thioxo-4,5-dihydro-1,3,4-oxadiazol-2-yl)-2H-chromen-2-one (11b)]	57.5 µM	3.36 µM
C/C(=N\Nc1nc(-c2cc3ccccc3oc2=O)cs1)c1cc2ccccc2oc1=O [Coumarin-thiazole series I, 6o]	–	8.91 µM
C/C(=N\Nc1nc(-c2cc3ccccc3oc2=O)cs1)c1ccccc1Br [(E)-3-(2-(2-(1-(2-bromophenyl)ethylidene)hydrazinyl)thiazol-4-yl)-2H-chromen-2-one (6c)]	0.16 µM	34.7 µM
C/C(=N\Nc1nc(-c2cc3ccccc3oc2=O)cs1)c1ccc(Br)cc1 [(E)-3-(2-(2-(1-(4-bromophenyl)ethylidene)hydrazinyl)thiazol-4-yl)-2H-chromen-2-one (6e)]	0.11 µM	1.71 µM
Cc1ccc(NCn2nc(-c3cc4ccccc4oc3=O)oc2=S)cc1 [3-(4-((p-Toluidino)methyl)-5-thioxo-4,5-dihydro-1,3,4-oxadiazol-2-yl)-2H-chromen-2-one (11c)]	–	7.11 µM
O=c1oc2ccccc2cc1-c1nn(CNc2ccccc2Cl)c(=S)o1 [3-(4-((2-Chlorophenylamino)methyl)-5-thioxo-4,5-dihydro-1,3,4-oxadiazol-2-yl)-2H-chromen-2-one (11d)]	0.31 µM	–
CC1=C(CC(=O)O)c2cc(F)ccc2/C1=C\c1ccc([S@@+](C)[O-])cc1 [cis-5-Fluoro-2-methyl-1-((p-methylsulfinyl)benzylidene)indene-3-acetic acid]	0.293 µM	–
O=c1oc2ccccc2cc1-c1nn(CN2CCOCC2)c(=S)o1 [3-(4-(Morpholinomethyl)-5-thioxo-4,5-dihydro-1,3,4-oxadiazol-2-yl)-2H-chromen-2-one (11g)]	0.34 µM	–
O=c1oc2ccccc2cc1-c1nn(CNc2ccc(Cl)cc2)c(=S)o1 [3-(4-((4-Chlorophenylamino)methyl)-5-thioxo-4,5-dihydro-1,3,4-oxadiazol-2-yl)-2H-chromen-2-one (11f)]	3.39 µM	5.68 µM
O=c1oc2ccccc2cc1-c1csc(NN=C(c2ccccc2)c2ccccc2)n1 [3-(2-(2-(diphenylmethylene)hydrazinyl)thiazol-4-yl)-2Hchromen-2-one (6n)]	–	17.1 µM
C/C(=N\Nc1nc(-c2cc3ccccc3oc2=O)cs1)c1ccccc1 [Coumarin-thiazole series I, 6a]	0.12 µM	2.94 µM
COc1ccc(/C(C)=N/Nc2nc(-c3cc4ccccc4oc3=O)cs2)c(O)c1 [(E)-3-(2-(2-(1-(2-hydroxy-4-methoxyphenyl)ethylidene)hydrazinyl)thiazol-4-yl)-2H-chromen-2-one (6j)]	–	5.47 µM
O=c1oc2ccccc2cc1-c1nn(CNc2cccc(Cl)c2)c(=S)o1 [3-(4-((3-Chlorophenylamino)methyl)-5-thioxo-4,5-dihydro-1,3,4-oxadiazol-2-yl)-2H-chromen-2-one (11e)]	–	15.2 µM
COc1cc(/C(C)=N/Nc2nc(-c3cc4ccccc4oc3=O)cs2)ccc1O [(E)-3-(2-(2-(1-(4-hydroxy-3-methoxyphenyl)ethylidene)hydrazinyl)thiazol-4-yl)-2H-chromen-2-one (6k)]	1.76 µM	1.41 µM
C/C(=N\Nc1nc(-c2cc3ccccc3oc2=O)cs1)c1ccccc1F [(E)-3-(2-(2-(1-(2-fluorophenyl)ethylidene)hydrazinyl)thiazol-4-yl)-2H-chromen-2-one (6f)]	–	57.4 µM
C/C(=N\Nc1nc(-c2cc3ccccc3oc2=O)cs1)c1cccc(Br)c1 [(E)-3-(2-(2-(1-(3-bromophenyl)ethylidene)hydrazinyl)thiazol-4-yl)-2H-chromen-2-one (6d)]	6.35 µM	93.6 µM
